Data published in patent US8906925B2, “Pyrido[4,3-B]indoles containing rigid moieties” (Medivation Technologies, Inc., priority 2008, dated 2014).
Read-outs that look alike come from different tables or passages of the source.

How the values were obtained:
[1] = molecular target: T1, human recombinant histamine H2 receptor (Homo sapiens, UniProt P25021); assay: Histamine H2 radioligand binding ([125I]Aminopotentidine); settings: read-out: Histamine Binding (1 μM) H2, percent inhibition of specific binding, 1 μM
T1 construct: expressed in transfected cells; host or cells: Chinese hamster ovary (CHO) K1 cells
How it was run: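 Receptor source: human recombinant H2 in CHO-K1 cells, assayed in 50 mM phosphate pH 7.4. Competition against 0.1 nM [125I]aminopotentidine, 120 min, 25 °C; 3 μM tiotidine sets nonspecific binding, filter-bound counts give specific binding.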

[2] = molecular target: T2, human recombinant adrenergic α1D receptor (Homo sapiens, UniProt P25100); assay: Adrenergic α1D radioligand binding ([3H]Prozosin); settings: percent inhibition of specific binding, compound at 1 μM; for inhibition at 1 µM: read-out: Inhibition of ligand binding, Adrenergic α1D
T2 construct: expressed in transfected cells; host or cells: human embryonic kidney (HEK-293) cells
T2 sequence (P25100 1-572): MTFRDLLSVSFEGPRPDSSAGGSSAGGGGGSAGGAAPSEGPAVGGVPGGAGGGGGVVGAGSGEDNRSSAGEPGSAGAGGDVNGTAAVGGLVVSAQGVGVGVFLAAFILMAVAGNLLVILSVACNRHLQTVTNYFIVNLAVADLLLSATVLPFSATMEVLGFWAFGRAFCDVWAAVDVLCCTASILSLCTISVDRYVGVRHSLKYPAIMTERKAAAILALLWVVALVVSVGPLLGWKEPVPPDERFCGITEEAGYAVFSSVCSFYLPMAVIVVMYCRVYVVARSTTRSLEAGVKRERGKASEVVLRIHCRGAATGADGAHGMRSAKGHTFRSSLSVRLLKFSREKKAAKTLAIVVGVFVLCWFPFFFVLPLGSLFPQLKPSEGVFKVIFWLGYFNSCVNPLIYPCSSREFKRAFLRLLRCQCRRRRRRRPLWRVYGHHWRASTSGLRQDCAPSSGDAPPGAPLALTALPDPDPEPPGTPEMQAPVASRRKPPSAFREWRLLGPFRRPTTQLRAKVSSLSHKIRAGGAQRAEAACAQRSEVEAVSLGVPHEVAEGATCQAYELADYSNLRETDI
Description: Compounds of invention were incubated with 0.6 nM [^3H]Prozosin for 60 min. at 25° C. Non-specific binding was estimated in the presence of 10 μM phentolamine. Receptor proteins were filtered and washed, the filters were then counted to determine [^3H]Prozosin specifically bound. Compounds were screened at 1 μM or lower, using 1% DMSO as vehicle. Biochemical assay results are presented as the percent inhibition of specific binding in Table 9.

[3] = molecular target: T3, human recombinant adrenergic α2A receptor (Homo sapiens, UniProt P08913); assay: Adrenergic α2A radioligand binding ([3H]MK-912); settings: percent inhibition of specific binding, compound at 1 μM; for inhibition at 1 µM: read-out: Inhibition of ligand binding, Adrenergic α2A
T3 construct: expressed in transfected cells; host or cells: insect Sf9 cells
T3 sequence (P08913 1-465): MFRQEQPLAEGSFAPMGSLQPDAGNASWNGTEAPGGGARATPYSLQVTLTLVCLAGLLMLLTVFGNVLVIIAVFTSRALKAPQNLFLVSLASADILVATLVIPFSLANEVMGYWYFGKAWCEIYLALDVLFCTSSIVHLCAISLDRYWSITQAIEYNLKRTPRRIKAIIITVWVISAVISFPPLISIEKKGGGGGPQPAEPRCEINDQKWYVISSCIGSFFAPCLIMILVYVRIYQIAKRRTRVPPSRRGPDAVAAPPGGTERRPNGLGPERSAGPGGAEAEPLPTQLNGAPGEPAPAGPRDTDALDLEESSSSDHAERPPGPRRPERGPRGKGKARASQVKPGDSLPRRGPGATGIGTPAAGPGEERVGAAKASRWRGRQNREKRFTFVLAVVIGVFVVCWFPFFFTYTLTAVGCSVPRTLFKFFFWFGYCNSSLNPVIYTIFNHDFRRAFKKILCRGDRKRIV
Description: To evaluate in radioligand binding assays the activity of compounds of the invention, human recombinant adrenergic α2A receptor expressed in insect Sf9 cells (Uhlen S et al. J Pharmacol Exp Ther. 271:1558, 1994) in a modified Tris-HCl buffer (50 mM Tris-HCl, pH 7.4, 12.5 mM MgCl2, 2 mM EDTA) was used. Compounds of invention were incubated with 1 nM [^3H]MK-912 for 60 min. at 25° C. MK912 is (2S-trans)-1,3,4,5′,6,6′,7,12b-octahydro-1′,3′-dimethyl-spiro[2H-benzofuro[2,3-a]quinolizine-2,4′(1′H)-pyrimidin]-2′(3′H)-one hydrochloride Non-specific binding was estimated in the presence of 10 μM WB-4101 (2-(2,6-Dimethoxyphenoxyethyl)aminomethyl-1,4-benzodioxane hydrochloride). Receptor proteins were filtered and washed, the filters were then counted to determine [^3H]MK-912 specifically bound. Compounds were screened at 1 μM or lower, using 1% DMSO as vehicle. Biochemical assay results are presented as the percent inhibition of specific binding in Table 9.

[4] = molecular target: T4, human recombinant serotonin (5-Hydroxytryptamine) 5-HT2A receptor (Homo sapiens, UniProt P28223); assay: Serotonin 5-HT2A radioligand binding ([3H]Ketanserin)
T4 construct: expressed in transfected cells; host or cells: Chinese hamster ovary (CHO-K1) cells
Description: Compounds of the invention were incubated with 0.5 nM [^3H]Ketanserin for 60 min. at 25° C. Non-specific binding was estimated in the presence of 1 μM Mianserin. Receptor proteins were filtered and washed, the filters were then counted to determine [^3H]Ketanserin specifically bound.

[5] = molecular target: T5, human recombinant serotonin (5-Hydroxytryptamine) 5-HT6 receptor (Homo sapiens, UniProt P50406); assay: Serotonin 5-HT6 radioligand binding ([3H]LSD); settings: read-out: Inhibition of ligand binding, Serotonin 5-HT6 (percent inhibition of specific binding); for inhibition at 1 µM: compound at 1 μM; for inhibition at 0.1 µM: compound at 0.1 μM
T5 construct: expressed in transfected cells; host or cells: human HeLa cells
Description: Compounds of the invention were incubated with 1.5 nM [3H]Lysergic acid diethylamide (LSD) for 120 min. at 37° C. […] Receptor proteins were filtered and washed, the filters were then counted to determine [3H]LSD specifically bound. Compounds were screened at 1 μM or lower, using 1% DMSO as vehicle. Biochemical assay results are presented as the percent inhibition of specific binding in Table 10.

[6] = molecular target: human recombinant serotonin (5-Hydroxytryptamine) 5-HT7 receptor (Homo sapiens, UniProt P34969); assay: Serotonin 5-HT7 radioligand binding ([3H]LSD); settings: for inhibition at 1 µM / inhibition at 0.1 µM: read-out: Inhibition of ligand binding, Serotonin 5-HT7 (percent inhibition of specific binding)
Text: Receptor proteins were filtered and washed, the filters were then counted to determine [^3H]LSD specifically bound.

[7] = read-out: Inhibition of ligand binding, Serotonin 5-HT2A (percent inhibition of specific binding), compound at 1 μM
[8] = read-out: Inhibition of ligand binding, Serotonin 5-HT2A (percent inhibition of specific binding), compound at 0.1 μM

T4 sequence (P28223 whole entry): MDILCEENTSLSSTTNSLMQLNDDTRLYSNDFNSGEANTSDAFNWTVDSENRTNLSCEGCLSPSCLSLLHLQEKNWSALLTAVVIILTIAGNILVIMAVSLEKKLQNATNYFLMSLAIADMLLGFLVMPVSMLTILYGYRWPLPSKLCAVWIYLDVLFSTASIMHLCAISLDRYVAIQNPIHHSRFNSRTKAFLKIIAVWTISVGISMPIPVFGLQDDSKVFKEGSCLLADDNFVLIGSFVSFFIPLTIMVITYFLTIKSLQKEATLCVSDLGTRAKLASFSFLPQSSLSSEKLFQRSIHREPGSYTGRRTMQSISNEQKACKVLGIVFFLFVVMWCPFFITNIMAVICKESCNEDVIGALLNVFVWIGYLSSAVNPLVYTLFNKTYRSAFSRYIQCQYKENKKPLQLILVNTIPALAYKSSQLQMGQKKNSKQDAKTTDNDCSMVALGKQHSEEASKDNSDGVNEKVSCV
T5 sequence (P50406 whole entry): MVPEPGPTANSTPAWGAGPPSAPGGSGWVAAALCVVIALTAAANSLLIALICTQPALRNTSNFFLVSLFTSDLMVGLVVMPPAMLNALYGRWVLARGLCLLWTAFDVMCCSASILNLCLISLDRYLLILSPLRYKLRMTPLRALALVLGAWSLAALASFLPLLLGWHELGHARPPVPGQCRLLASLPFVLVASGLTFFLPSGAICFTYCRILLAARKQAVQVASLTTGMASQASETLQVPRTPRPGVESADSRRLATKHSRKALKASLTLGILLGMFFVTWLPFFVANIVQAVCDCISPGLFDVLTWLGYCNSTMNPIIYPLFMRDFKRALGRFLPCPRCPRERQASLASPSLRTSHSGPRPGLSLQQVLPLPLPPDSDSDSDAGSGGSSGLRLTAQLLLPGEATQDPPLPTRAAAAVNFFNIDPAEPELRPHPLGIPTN
T1 sequence (P25021 whole entry): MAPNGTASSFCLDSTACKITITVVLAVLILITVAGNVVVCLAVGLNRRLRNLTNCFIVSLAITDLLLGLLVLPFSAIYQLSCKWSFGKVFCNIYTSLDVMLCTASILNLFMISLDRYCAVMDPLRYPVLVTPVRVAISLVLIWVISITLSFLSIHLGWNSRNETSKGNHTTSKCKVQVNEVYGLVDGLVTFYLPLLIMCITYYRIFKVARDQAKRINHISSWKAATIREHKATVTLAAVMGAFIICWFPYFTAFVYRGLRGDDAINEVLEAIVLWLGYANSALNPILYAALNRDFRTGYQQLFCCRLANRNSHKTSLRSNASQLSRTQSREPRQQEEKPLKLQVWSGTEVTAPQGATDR
Chain of human recombinant serotonin (5-Hydroxytryptamine) 5-HT7 receptor (P34969 whole entry): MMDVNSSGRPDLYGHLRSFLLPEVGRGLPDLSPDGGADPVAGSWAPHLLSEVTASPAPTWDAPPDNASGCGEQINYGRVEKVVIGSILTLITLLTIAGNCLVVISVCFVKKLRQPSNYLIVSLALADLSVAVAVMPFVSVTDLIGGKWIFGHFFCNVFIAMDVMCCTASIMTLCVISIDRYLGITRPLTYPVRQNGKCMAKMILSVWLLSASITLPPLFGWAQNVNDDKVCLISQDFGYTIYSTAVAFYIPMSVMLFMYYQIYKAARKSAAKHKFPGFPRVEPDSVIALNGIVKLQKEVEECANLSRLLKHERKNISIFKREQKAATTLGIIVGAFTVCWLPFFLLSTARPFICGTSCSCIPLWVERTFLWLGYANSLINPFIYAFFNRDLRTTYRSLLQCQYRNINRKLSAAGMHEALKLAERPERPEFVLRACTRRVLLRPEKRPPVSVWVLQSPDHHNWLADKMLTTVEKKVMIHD

| Structure (SMILES) | inhibition at 1 µM [1] [%] | inhibition at 1 µM [2] [%] | inhibition at 1 µM [3] [%] | inhibition at 1 µM [4, 7] [%] | inhibition at 1 µM [5] [%] | inhibition at 1 µM ([6]; compound at 1 μM) [%] | Inhibition of ligand binding, Adrenergic α1D ([2]; 1 µM) [%] | Inhibition of ligand binding, Adrenergic α2A ([3]; 1 µM) [%] | inhibition at 0.1 µM [4, 8] [%] | inhibition at 0.1 µM [5] [%] | Inhibition of ligand binding, Serotonin 5-HT7 (percent inhibition of specific binding) ([6]; compound at 1 μM, 1 µM) [%] | Inhibition of ligand binding, Serotonin 5-HT7 (percent inhibition of specific binding) ([6]; compound at 0.1 μM, 0.1 µM) [%] | inhibition at 0.1 µM ([6]; compound at 0.1 μM) [%] | inhibition at 0.1 µM ([4]; compound at 0.1 μM, read-out: Inhibition of ligand binding, Serotonin 5-HT2A (percent inhibition of specific binding)) [%] | inhibition at 1 µM ([4]; compound at 1 μM, read-out: Inhibition of ligand binding, Serotonin 5-HT2A (percent inhibition of specific binding)) [%] |
| --- | --- | --- | --- | --- | --- | --- | --- | --- | --- | --- | --- | --- | --- | --- | --- |
| Cc1ccc(C(O)Cn2c3c(c4ccccc42)CN(C)CC3)cc1 (racemic) [Compound 53, racemic-2-(1,2,3,4-tetrahydro-2-methylpyrido[4,3-b]indol-5-yl)-1-p-tolylethanol] | 58 | 55 | 93 | 100 | 49 | 87 | – | – | – | – | – | – | – | – | – |
| CC(=Cn1c2c(c3cc(Cl)ccc31)CN(C)CC2)c1ccc(Cl)cc1Cl (stereo in doubt) [Compound 111, (Z)-8-chloro-5-(2-(2,4-dichlorophenyl)prop-1-enyl)-2,3,4,5-tetrahydro-2-methyl-1H-pyrido[4,3-b]indole] | 91 | – | – | 99 | 94 | – | 47 | 101 | 86 | 71 | 102 | – | – | – | – |
| CN1CCc2c(c3cc(Cl)ccc3n2CC(C)(O)c2ccc(F)cc2)C1 (stereo not shown) [Compound 45, 1-(8-chloro-1,2,3,4-tetrahydro-2-methylpyrido[4,3-b]indol-5-yl)-2-(4-fluorophenyl)propan-2-ol] | 94 | 61 | 89 | 99 | 94 | 92 | – | – | 86 | 48 | – | – | – | – | – |
| CCC(O)(Cn1c2c(c3cc(Cl)ccc31)CN(C)CC2)c1ccc(F)cc1 (stereo not shown) [Compound 78, 1-(8-chloro-1,2,3,4-tetrahydro-2-methylpyrido[4,3-b]indol-5-yl)-2-(4-fluorophenyl)butan-2-ol] | 89 | 49 | 91 | 97 | 101 | 97 | – | – | 76 | 78 | – | – | – | – | – |
| CN1CCc2c(c3cc(Cl)ccc3n2CC(O)(c2ccc(F)cc2)C2CC2)C1 (stereo not shown) [Compound 82, 2-(8-chloro-1,2,3,4-tetrahydro-2-methylpyrido[4,3-b]indol-5-yl)-1-cyclopropyl-1-(4-fluorophenyl)ethanol] | 99 | 62 | 96 | 100 | 103 | 93 | – | – | 92 | 90 | – | 95 | 86 | – | – |
| C/C(=C\n1c2c(c3cc(Cl)ccc31)CN(C)CC2)c1ccc(F)cc1 [Compound 83, (E)-8-chloro-5-(2-(4-fluorophenyl)prop-1-enyl)-2,3,4,5-tetrahydro-2-methyl-1H-pyrido[4,3-b]indole] | 99 | 96 | 98 | – | 102 | 93 | – | – | – | 96 | – | 96 | 82 | 98 | 99 |
| C/C(=C\n1c2c(c3cc(C)ccc31)CN(C)CC2)c1ccc(F)cc1 [Compound 87, (E)-5-(2-(4-fluorophenyl)prop-1-enyl)-2,3,4,5-tetrahydro-2,8-dimethyl-1H-pyrido[4,3-b]indole] | 100 | 99 | 95 | 99 | 101 | 100 | – | – | 100 | 97 | – | – | – | – | – |
